Measurements as given in patent publication US20250326772A1, “MRGPRX2 ANTAGONISTS, PHARMACEUTICAL COMPOSITION INCLUDING MRGPRX2 ANTAGONIST, AND METHOD OF TREATING MRGPRX2-MEDIATED DISEASE OR DISORDER” (KYORIN PHARMACEUTICAL CO., LTD., priority 2024, published 2025).

Biological target: T1, MRGPRX2 (Homo sapiens, UniProt Q96LB1)
T1 sequence (Q96LB1 1-330): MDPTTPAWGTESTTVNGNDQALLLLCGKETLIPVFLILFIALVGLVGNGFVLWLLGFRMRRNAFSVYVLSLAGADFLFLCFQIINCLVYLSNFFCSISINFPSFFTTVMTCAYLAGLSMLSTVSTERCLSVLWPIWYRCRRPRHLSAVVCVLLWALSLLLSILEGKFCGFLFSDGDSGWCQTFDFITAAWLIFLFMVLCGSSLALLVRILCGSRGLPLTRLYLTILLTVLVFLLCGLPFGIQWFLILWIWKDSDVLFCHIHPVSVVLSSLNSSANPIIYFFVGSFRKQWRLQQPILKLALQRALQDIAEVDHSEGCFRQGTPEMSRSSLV
Test: MRGPRX2 reporter cell assay (NFAT-RE luciferase, Substance P stimulation)
Format: cell-based
Settings: U2OS cells stably transfected with MRGPRX2 and NFAT-RE luciferase reporter; Substance P at EC80
Procedure: MRGPRX2 Reporter Cell Assays U2OS cells (ATCC, Manassas, VA) were stably transfected with MRGPRX2 expression clones (GeneCopoeia, Rockville, MD) and the pGL4.30 [luc2P/NFAT-RE/Hygro] reporter plasmid (Promega, Madison, WI). Clonal cells were maintained in Growth Media (McCoy's 5A, 10% FBS, 495 μg/ml hygromycin, 2 μg/ml puromycin, 100 units/ml penicillin, and 100 ug/ml streptomycin). The day before assay, cells were plated to white 384-well microplates at 3000 (MRGPRX2) cells/well in 10 ul Assay Media (McCoy's 5A, 2% charcoal dextran stripped FBS, 100 units/ml penicillin, and 100 ug/ml streptomycin) (Gibco, Thermo Fisher) and allowed to adhere overnight. The following day, serially diluted compound stocks were added directly to the cells (final DMSO concentration of 0.5%) and pre-incubated for 30 minutes at 37° C., 5% CO2. The final concentration of Substance P (Tocris, Minneapolis, MN, or PEPTIDE INSTITUTE, Osaka, Japan) corresponding to EC80 was added to stimulate the (MRGPRX2) cells. Cells were returned to the incubator for 6 hrs, after which 5 ul of ONE-GLO substrate (Promega) was added. Luminescence was read within 15 minutes (BioTek, Winooski, VT or infinite M1000Pro, Tecan Japan, Kanagawa, Japan). Percent inhibition for each test compound was calculated using the formula: […] where: • A=the luminescence count of the “test compound” well • B=the median luminescence count of the “Vehicle (0.5% DMSO)” wells • C═the median luminescence count of the “Vehicle (0.5% DMSO)+5 uM of substance P” wells The mean percent inhibition of each concentration of “test compound” was used to generate dose-response curves. IC50 values were calculated using a four-parameter logistic fit to the data using GraphPad Prism software. • +++: […]

| IC50 | Compound |
| --- | --- |
| 0.0032 µM | COC(=O)N[C@@H]1COc2c(-c3[nH]c4ncccc4c3-c3cn(C)nc3C#N)c(C(F)F)nn2C1 [EX. 517] |
| 0.0021 µM | Cn1cc(-c2c(-c3c(C(F)F)nn4c3OC[C@@H](OCCO)C4)[nH]c3ncccc23)c(OC(F)F)n1 [EX. 534] |
| 0.0036 µM | CCc1nn2c(c1-c1[nH]c3ncccc3c1-c1cn(C)nc1OC(F)F)OC[C@@H](NC(=O)OC)C2 [EX. 572] |

Same assay, conditions: U2OS cells stably transfected with MRGPRX2 and NFAT-RE luciferase reporter; Substance P at EC80; class symbols

| Compound | IC50 |
| --- | --- |
| COc1ccc(F)cc1-c1[nH]c2nccc(F)c2c1-c1ccccc1C#N [EX. 27] | < 0.01 µM |
| COc1ccc(C#N)c(-c2c(-c3c(OC)nn4cccnc34)[nH]c3ncccc23)c1 [EX. 225] | < 0.01 µM |
| [2H]C([2H])([2H])Oc1ccc(C#N)c(-c2c(-c3c(C4CC4)nn4c3OCCC4)[nH]c3ncccc23)c1 [EX. 177] | < 0.01 µM |
| Cc1ccnc2[nH]c(-c3c[nH]nc3C(F)(F)F)c(-c3ccccc3C#N)c12 [EX. 78] | < 0.01 µM |
| [2H]C([2H])([2H])Oc1ccc(C#N)c(-c2c(-c3c(C)nn4c3OCC4)[nH]c3ncccc23)c1 [EX. 238] | < 0.01 µM |
| [2H]C([2H])([2H])Oc1ccc(C#N)c(-c2c(-c3c(C(F)F)nn4c3OCCC4)[nH]c3ncccc23)c1 [EX. 247] | < 0.01 µM |
| COc1ccc(C#N)c(-c2c(-c3c(C)nn4c3OCC4)[nH]c3ncccc23)c1 [EX. 230] | < 0.01 µM |
| N#Cc1ccccc1-c1c(-c2c[nH]nc2C(F)F)[nH]c2ncccc12 [EX. 71] | < 0.01 µM |
| Cn1cc(-c2[nH]c3ncccc3c2-c2ccccc2C#N)c(C(F)F)n1 [EX. 146] | < 0.01 µM |
| COc1ccc(C#N)c(-c2c(-c3c(C)nn4c3OCC(N)C4)[nH]c3ncccc23)c1 (centres unmarked) [EX. 355] | < 0.01 µM |
| Cc1cc(-c2c(-c3cn(C)nc3C(F)F)[nH]c3ncccc23)c(C#N)s1 [EX. 287] | < 0.01 µM |
| COc1ccc(C#N)c(-c2c(-c3c(C)nn4c3OCC(N)C4)[nH]c3ncccc23)c1 (centres unmarked) [EX. 359] | < 0.01 µM |

Second part, the compound after the results:

| IC50 | Compound |
| --- | --- |
| < 0.01 µM | Cn1cc(-c2c(-c3c(C(F)F)nn4c3OC[C@@H](NCCO)C4)[nH]c3ncccc23)c(OC(F)F)n1 [EX. 558] |
| < 0.01 µM | Cn1cc(-c2c(-c3c(C(F)F)nn4c3OC[C@@H](N3CCCS3(=O)=O)C4)[nH]c3ncccc23)c(OC(F)F)n1 [EX. 580] |
| < 0.01 µM | Cn1cc(-c2c(-c3c(C(F)F)nn4c3OC[C@@H](NC(=O)OC3CCOC3)C4)[nH]c3ncccc23)c(OC(F)F)n1 (some centres unmarked) [EX. 566] |
| < 0.01 µM | Cn1cc(-c2c(-c3c(C(F)F)nn4c3OC[C@@H](NC(=O)[C@@H]3C[C@@H]3F)C4)[nH]c3ncccc23)c(OC(F)F)n1 [EX. 549] |
| < 0.01 µM | COC(=O)N[C@@H]1COc2c(-c3[nH]c4ncccc4c3-c3cn(C)nc3C#N)c(C(F)F)nn2C1 [EX. 517] |
| 0.1 to 1 µM | N#Cc1nccnc1-c1c(-c2c(C(F)F)nn3c2OCCC3)[nH]c2ncccc12 [EX. 409] |
| < 0.01 µM | COC(=O)N[C@@H]1COc2c(-c3[nH]c4ncccc4c3-c3cccnc3C#N)c(C(F)F)nn2C1 [EX. 514] |
| < 0.01 µM | Cn1cc(-c2c(-c3c(C(F)F)nn4c3OCC4)[nH]c3ncccc23)c(OC(F)F)n1 [EX. 432] |
| < 0.01 µM | COc1ccc(C#N)c(-c2c(-c3c(C(F)F)nn4c3OC[C@H](NC(C)=O)C4)[nH]c3ncccc23)c1 [EX. 362] |
| < 0.01 µM | Cn1cc(-c2c(-c3c(C(F)F)nn4c3OC[C@@H](OCC(C)(C)O)C4)[nH]c3ncccc23)c(C#N)n1 [EX. 501] |
| < 0.01 µM | FC(F)c1nn2c(c1-c1[nH]c3ncccc3c1-c1ccccc1)OC[C@@H](F)C2 [EX. 445] |
| 0.01 to 0.1 µM | FC(F)Oc1nnc(Cl)cc1-c1c(-c2c(C(F)F)nn3c2OCCC3)[nH]c2ncccc12 [EX. 389, 3-(3-(6-chloro-3-(difluoromethoxy)pyridazin-4-yl)-1H-pyrrolo[2,3-b]pyridin-2-yl)-2-(difluoromethyl)-6,7-dihydro-5H-pyrazolo[5,1-b] [1,3]oxazine] |
| < 0.01 µM | Cn1cc(-c2c(-c3c(C(F)F)nn4c3OC[C@@H](OCCO)C4)[nH]c3ncccc23)c(OC(F)F)n1 [EX. 534] |
| 0.01 to 0.1 µM | COc1nscc1-c1c(-c2c(C(F)F)nn3c2OCCC3)[nH]c2ncccc12 [EX. 404] |
| < 0.01 µM | COC(=O)N[C@@H]1COc2c(-c3[nH]c4ncccc4c3-c3cc(C)sc3C#N)c(C)nn2C1 [EX. 494] |
| < 0.01 µM | CCc1nn2c(c1-c1[nH]c3ncccc3c1-c1cn(C)nc1OC(F)F)OC[C@@H](NC(=O)OC)C2 [EX. 572] |
| < 0.01 µM | CO[C@@H]1COc2c(-c3[nH]c4ncccc4c3-c3cccnc3OC(F)F)c(C(F)F)nn2C1 [EX. 499] |
